Assay results as given in patent US20250084082A1, “HUPERZINE B CRYSTAL AND PREPARATION AND APPLICATION THEREOF” (priority 2021, published 2025).

Key:
[1] = Hygroscopicity test (Chinese Pharmacopoeia 2020); type: physicochemical
Experimental: The test was carried out with reference to the requirements of hygroscopicity test in the General Technical Requirements of Part IV of the Chinese Pharmacopoeia 2020 Edition.
Methods: A dry stoppered glass weighing flask (outer diameter 50 mm, height 15 mm) was placed in a suitable 25° C.±1° C. constant temperature desiccator (with ammonium chloride or ammonium sulfate saturated solution placed in the lower part) or an artificial climate chamber (with a set temperature of 25° C.±1° C. and a relative humidity of 80%±2%) prior to the test, and the weight (m1) was weighed precisely.
The thickness of the test sample was generally 1 mm, and the weight (m2) was weighed precisely. The weighing flask was left open, and was placed in the above constant temperature and humidity conditions together with the cap of the flask for 24 hours.
The weighing flask was closed with the cap and weighed precisely (m3).

[2] = Stability of crystals: high temperature test (60° C.); type: physicochemical
Excerpt: (§1) The conditions and methods for detecting the relevant substances involved in the present invention are high performance liquid chromatography determination.
The samples were taken and tested on day 5 and day 10, respectively, and the results were compared with those on day 0.The results are shown in Table 5.

[3] = Stability of crystals: high humidity test (RH 75±5%); type: physicochemical; details: around 25° C.
Excerpt: as §1
The samples were taken and tested on day 5 and day 10, respectively, and the results were compared with that of day 0.

BuchE = biological target: T1, BuchE (Rattus norvegicus, UniProt Q9JKC1); experiment: Cholinesterase inhibitory activity in vivo: BuchE activity in rat serum after gavage; design: species or system SD rats
T1 construct: The effect of Huperzine B on BuchE activity in the serum of rats; from tissue; host or cells: SD rat serum (ex vivo after gavage)
Experimental: Experimental animals: SD rats, clean grade, male, body weight 180-200 g, provided by Shanghai SLAC Laboratory Animal Co., Ltd, free to drink and ingest during the experimental period, indoor temperature 22-24° C., humidity 45-70%.
Main reagents: S-Butyrylthiocholine iodide, S-Acetylthiocholine iodide, Kaumas Brilliant Blue, sodium hydroxide, ethyl carbamate (urethane), phosphoric acid, sodium chloride, sodium bicarbonate, potassium dihydrogen phosphate, ethanol, sodium dodecyl sulfate, 5,5′-Dithiobis-(2-nitrobenzoic acid) (DTNB), hydrochloric acid; the above chemical reagents were purchased from Sinopharm Chemical Reagent Co., Ltd. Physiological saline, product of Shanghai Bangjing Industry Co., Ltd; bovine serum albumin, purchased from Meilun Biologicals.
The equation for calculating the activity and the activity rate of “butyrylcholinesterase” was the same as that for “acetylcholinesterase”.
Statistical analysis: SPSS 18 statistical software and EXCEL were applied. Measurement data were expressed as “mean±standard deviation (x±s)”, t-test was used for comparison between two groups, and LSD method was used for pairwise comparison between groups when there was homogeneity of variance, and Dunnett's method was used for analysis when there was heterogeneity of variance. P<0.05 indicates significant differences.

[4] = Stability of crystals: strong light irradiation test (4,500±500 Lx); type: physicochemical
Excerpt: as §1
The distance was adjusted so that the light intensity was 4,500±500 Lx. The samples were taken and tested on day 5 and day 10, respectively, and the results were compared with that of day 0.

[5] = 25° C.±1° C., relative humidity 80%±2%, 24 hours

T1 sequence (Q9JKC1 24-597): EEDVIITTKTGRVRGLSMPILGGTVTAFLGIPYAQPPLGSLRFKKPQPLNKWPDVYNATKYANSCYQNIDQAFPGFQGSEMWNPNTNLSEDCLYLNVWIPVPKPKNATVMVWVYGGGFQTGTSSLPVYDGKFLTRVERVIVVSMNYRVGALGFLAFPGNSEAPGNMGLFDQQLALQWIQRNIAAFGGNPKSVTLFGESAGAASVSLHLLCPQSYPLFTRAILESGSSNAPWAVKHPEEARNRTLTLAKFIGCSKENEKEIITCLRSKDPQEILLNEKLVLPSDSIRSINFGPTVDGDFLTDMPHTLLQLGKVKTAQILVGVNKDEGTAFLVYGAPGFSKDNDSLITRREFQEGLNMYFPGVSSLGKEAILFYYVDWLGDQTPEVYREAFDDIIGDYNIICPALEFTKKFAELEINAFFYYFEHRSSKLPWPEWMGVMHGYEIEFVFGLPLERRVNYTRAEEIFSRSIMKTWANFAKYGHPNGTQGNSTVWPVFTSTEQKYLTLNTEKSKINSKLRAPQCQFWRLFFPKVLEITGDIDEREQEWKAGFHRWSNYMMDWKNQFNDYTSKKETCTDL

For `CC1=CC2Cc3[nH]c(=O)ccc3C3(C1)NCCCC23` [Crystal form A, (4aR, 5R, 10bR)-1,2,3,4,4a,4,6,10b octahydro-12-methyl-5,10b-propeno-1,7-phenanthrolin-8 (7H)-one], the “Conclusion: (hygroscopicity)” value [1, 5] was “No or almost no”, the “Percentage of weight gain (%)” value [1, 5] was 0.05% and the “hygroscopicity (in words)” value ([1]; compared with Huperzine B crystal form B) was “low hygroscopicity”. The Appearance ([2]; day 0) was “Off-white”, the Content ([2]; day 0) was 100.1% and the relevant substances ([2]; day 0) was 0.12. The Appearance ([2]; day 5) was “Off-white”, the Content ([2]; day 5) was 100.2% and the relevant substances ([2]; day 5) was 0.19. The Appearance ([2]; day 10) was “Off-white”, the Content ([2]; day 10) was 99.7% and the relevant substances ([2]; day 10) was 0.21. The Appearance ([3]; day 0) was “Off-white powder”, the Content ([3]; day 0) was 100.1% and the Moisture ([3]; day 0) was 6.93%. The Appearance ([3]; day 5) was “Off-white powder”, the Content ([3]; day 5) was 100.2% and the Moisture ([3]; day 5) was 6.95%. The Appearance ([3]; day 10) was “Off-white powder”, the Content ([3]; day 10) was 99.9% and the Moisture ([3]; day 10) was 6.98%. The “effect on BuchE activity in the rat serum (in words)” value (BuchE; rat serum) was “certain inhibitory effect”, the Appearance ([4]; day 0) was “Off-white powder” and the Content ([4]; day 0) was 100.1%. The relevant substances ([4]; day 0) was 0.12, the Appearance ([4]; day 5) was “Off-white powder” and the Content ([4]; day 5) was 99.8%. For the same molecule, the relevant substances ([4]; day 5) was 0.22, the Appearance ([4]; day 10) was “Off-white powder” and the Content ([4]; day 10) was 98.9%. The relevant substances ([4]; day 10) was 0.28.

With `CC1=CC2Cc3[nH]c(=O)ccc3C3(C1)NCCCC23` [Crystal form B, (4aR, 5R, 10bR)-1,2,3,4,4a,4,6,10b octahydro-12-methyl-5,10b-propeno-1,7-phenanthrolin-8 (7H)-one] the “Percentage of weight gain (%)” value [1, 5] was 2.88%, the Appearance ([2]; day 0) was “Off-white” and the Content ([2]; day 0) was 99.8%. The relevant substances ([2]; day 0) was 0.18, the Appearance ([2]; day 5) was “Off-white” and the Content ([2]; day 5) was 99.5%. The relevant substances ([2]; day 5) was 0.29, the Appearance ([2]; day 10) was “Off-white” and the Content ([2]; day 10) was 98.9%. For the same molecule, the relevant substances ([2]; day 10) was 0.41, the Appearance ([3]; day 0) was “Off-white powder” and the Content ([3]; day 0) was 99.8%. For the same molecule, the Moisture ([3]; day 0) was 6.13%, the Appearance ([3]; day 5) was “Off-white powder” and the Content ([3]; day 5) was 99.7%. For the same molecule, the Moisture ([3]; day 5) was 7.13%, the Appearance ([3]; day 10) was “Off-white powder” and the Content ([3]; day 10) was 99.6%. The Moisture ([3]; day 10) was 7.53%, the Appearance ([4]; day 0) was “Off-white powder” and the Content ([4]; day 0) was 99.8%. For the same molecule, the relevant substances ([4]; day 0) was 0.18, the Appearance ([4]; day 5) was “Off-white powder” and the Content ([4]; day 5) was 99.5%. The relevant substances ([4]; day 5) was 0.32, the Appearance ([4]; day 10) was “Off-white powder” and the Content ([4]; day 10) was 98.6%. The relevant substances ([4]; day 10) was 0.49.

Molecule `CC1=CC2Cc3[nH]c(=O)ccc3C3(C1)NCCCC23` [hupB, (4aR, 5R, 10bR)-1,2,3,4,4a,4,6,10b octahydro-12-methyl-5,10b-propeno-1,7-phenanthrolin-8 (7H)-one] has an inhibition at 0.12 mg/kg (BuchE; po, rat serum BuchE, 0.12 mg/kg by gavage, x±s, read-out: Inhibition rate (%)) of 1 ± 46.5%, an inhibition at 0.24 mg/kg (BuchE; po, rat serum BuchE, 0.24 mg/kg by gavage, x±s, read-out: Inhibition rate (%)) of 19.9 ± 28.1% and an inhibition at 0.48 mg/kg (BuchE; po, rat serum BuchE, 0.48 mg/kg by gavage, x±s, read-out: Inhibition rate (%)) of 29.2 ± 13.7%. The “Serum BuchE (nmol/min/mg protein)” value (BuchE; rat serum, 0.12 mg/kg by gavage, x±s) was 6.83 ± 3.21 nmol/min/mg protein, the “Serum BuchE (nmol/min/mg protein)” value (BuchE; rat serum, 0.24 mg/kg by gavage, x±s) was 5.53 ± 1.94 nmol/min/mg protein and the “Serum BuchE (nmol/min/mg protein)” value (BuchE; rat serum, 0.48 mg/kg by gavage, x±s) was 4.88 ± 0.94 nmol/min/mg protein.
